From patent publication US20240181022A1, “AMURINS LYSINS, AND LYSIN-ANTIMICROBIAL PEPTIDE (AMP) CONSTRUCTS ACTIVE AGAINST GRAM-NEGATIVE BACTERIA” (priority 2021, published 2024)
Values after ≈ are worked out from the molar mass of the structure shown. Values joined by “and” are separate entries in the source; they are usually repeats but may differ in a detail not shown here. Equal entries are not always repeated. Where two headings read alike, the source gives them in different places. Marks after values point to notes of the source that are not given here.

How the values were obtained:
[1] = tested on: P. aeruginosa; assay: Checkerboard synergy assay (FICI) with antibiotics against P. aeruginosa; type: cell-based, Pseudomonas aeruginosa; details: for Antibiotic MIC (single agent): P. aeruginosa strain AR-769; for Antibiotic FIC / Antibiotic MIC (combo): P. aeruginosa strain AR-769, in combination with GN370; for Antibiotic MIC (combo): in µg/mL
Method: (§1) Any known method to assess MIC may be used.
(§2) Checkerboards are constructed by first preparing columns of e.g., a 96-well polypropylene microtiter plate, wherein each well has the same amount of antibiotic diluted 2-fold along the horizontal axis. […] Bacteria are added to the drug combinations at concentrations of 1×10^5 […] in CAA, for example, with or without human serum or pulmonary surfactant. […] Summation fractional inhibitory concentrations (ΣFICs) are calculated for each drug and the minimum ΣFIC value (ΣFICmin) is used to determine the effect of the Chp peptide/antibiotic combination.
The synergy of GN370 with meropenem was evaluated against 3 different strains of P. aeruginosa and three different strains of B. cenocepacia.
(§3) GN370 was further tested in combination with up to seven additional antibiotics (in addition to meropenem) against a variety of bacterial strains, including P. aeruginosa, A. baumannii, E. coli, E. cloacae, and K. pneumoniae. GN370 and the subject antibiotics were tested in a checkerboard assay format, and FICI values were determined, wherein ≤0.5 indicates synergy, >0.5-≤1 indicates additive; and >1 indicates indifferent.

[2] = tested on: P. aeruginosa; details: XDR P. aeruginosa strain AR-769
[3] = tested on: A. baumannii; assay: Checkerboard synergy assay (FICI) against A. baumannii; type: cell-based, Acinetobacter baumannii; details: A. baumannii ATCC BAA-747
Method: as §1, §2, §3

[4] = tested on: E. cloacae; assay: Checkerboard synergy assay (FICI) against E. cloacae; type: cell-based, Enterobacter cloacae; details: E. cloacae ATCC 13047
Method: as §1, §2, §3

[5] = tested on: E. coli; assay: Checkerboard synergy assay (FICI) against E. coli; type: cell-based, Escherichia coli; details: E. coli ATCC 25922
From the text: In some embodiments, the Chp peptides disclosed herein or active fragments thereof reduce the minimum inhibitory concentration (MIC) of an antibiotic in the presence and/or absence of human serum, pulmonary surfactant, and/or sputum, including human sputum and human sputum from a cystic fibrosis patient. Any known method to assess MIC may be used. In some embodiments, a checkerboard assay is used to determine the effect of a Chp peptide or active fragment thereof on antibiotic concentration. The checkerboard assay is based on a modification of the CLSI method for MIC determination by broth microdilution (See Clinical and Laboratory Standards Institute (CLSI), CLSI. 2015. Methods for Dilution Antimicrobial Susceptibility Tests for Bacteria That Grow Aerobically; Approved Standard-10th Edition. Clinical and Laboratory Standards Institute, Wayne, PA, which is herein incorporated by reference in its entirety and Ceri et al. 1999. J. Clin. Microbiol. 37: 1771-1776, which is also herein incorporated by reference in its entirety).
Checkerboards are constructed by first preparing columns of e.g., a 96-well polypropylene microtiter plate, wherein each well has the same amount of antibiotic diluted 2-fold along the horizontal axis. […] The Chp peptide or active fragment thereof and antibiotic dilutions are then combined, so that each column has a constant amount of antibiotic and doubling dilutions of Chp peptide, while each row has a constant amount of Chp peptide and doubling dilutions of antibiotic. Each well thus has a unique combination of Chp peptide and antibiotic. Bacteria are added to the drug combinations at concentrations of 1×10^5 GFU/ml in CAA, for example, with or without human serum or pulmonary surfactant. […] Summation fractional inhibitory concentrations (ΣFICs) are calculated for each drug and the minimum ΣFIC value (ΣFICmin) is used to determine the effect of the Chp peptide/antibiotic combination.
as §3

[6] = tested on: P. aeruginosa AR-769; assay: GN370 in the rabbit pneumonia model; type: in vivo, New Zealand White rabbits; details: amikacin-alone or GN370-alone
[7] = tested on: K. pneumoniae; assay: Checkerboard synergy assay (FICI) against K. pneumoniae; type: cell-based, Klebsiella pneumoniae; details: K. pneumoniae HM-44
Method: as §1, §2, §3

[8] = tested on: P. aeruginosa AR-769; assay: Repeat dose study of AM1 in the rabbit pulmonary infection model; type: in vivo
[9] = tested on: P. aeruginosa; details: 21 day serial passage, literature; cited from earlier work
[10] = tested on: P. aeruginosa; assay: Serial passage resistance development study, P. aeruginosa; type: cell-based, Pseudomonas aeruginosa; details: for MIC: Pseudomonas aeruginosa
[11] = rabbit, amikacin 16 mg/kg i.v. every 8 hours (n = 17)

## NCC[C@H](O)C(=O)N[C@@H]1C[C@H](N)[C@@H](O[C@H]2O[C@H](CN)[C@@H](O)[C@H](O)[C@H]2O)[C@H](O)[C@H]1O[C@H]1O[C@H](CO)[C@@H](O)[C@H](N)[C@H]1O [amikacin, reference compound]
[1]; P. aeruginosa ATCC 27853, checkerboard
  FICI of the antibiotic with GN370: 0.375
[1]
  Antibiotic MIC (single agent): 0.5 µg/mL
  Antibiotic FIC: 0.25
  Antibiotic MIC (combo): 0.125
[2]
  MIC: 8 µg/mL (≈ 13.7 µM)
[3]
  FICI of the antibiotic with GN370: 0.625
[4]
  FICI of the antibiotic with GN370: 0.75
[5]
  FICI of the antibiotic with GN370: 0.25
[6]
  decrease of mean bacterial densities in lungs vs vehicle controls: 1.3 log10 CFU/g
[7]
  FICI of the antibiotic with GN370: 0.375
[8]; agent alone, intravenous, treatment from 6 hours post-infection
  mean bacterial density in lungs compared to the vehicle control group: moderate to no CFU/g reduction
[8]; [11]
  Log CFU change v. pre-treatment (at 6 hours): 0.35* Log CFU
  Mean Bacterial Density in Lung ± SD: 7.84 ± 1.06 Log CFU/lung
  Survival: 85%

## O=C(O)c1cn(C2CC2)c2cc(N3CCNCC3)c(F)cc2c1=O [ciprofloxacin, reference compound]
[1]
  Antibiotic MIC (single agent): 8 µg/mL
  Antibiotic FIC: 0.25
  Antibiotic MIC (combo): 2 and 1
[1]; listed as Ciprofloxacin
  Antibiotic FIC: 0.125
[9]
  increase of MIC over serial passage (D'Lima et al.): up to 32 fold
[10]; P. aeruginosa (PA453)
  change in MIC over 28-day serial passage: up to 512 fold
[10]; P. aeruginosa strain CFS 1292, Day 28
  change in MIC over serial passage: 256 fold
[10]
  MIC: 2 µg/mL (≈ 6.04 µM)
[10]; 672 h, read-out: MIC after 28-day serial passage
  MIC: 256 µg/mL (≈ 773 µM)
[10]; read-out: MIC at start of serial passage
  MIC: 1 µg/mL (≈ 3.02 µM)
[7]
  FICI of the antibiotic with GN370: 0.156
